# Test results taken from ChEMBL document CHEMBL1147460, “Syntheses and SAR studies of 4-(heteroarylpiperdin-1-yl-methyl)-pyrrolidin-1-yl-acetic acid antagonists of the human CCR5 chemokine receptor” (Bioorg Med Chem Lett, 2004).
# Key:
# HeLa [1] = assay: Anti viral activity was determined in anti HIV-1 infectivity assay in HeLa Magi cells; format: functional, cell-based; conditions: Homo sapiens
# [2] = molecular target: T1, C-C chemokine receptor type 5 (Homo sapiens, UniProt P51681); assay: Inhibition of human C-C chemokine receptor type 5 assayed using [125I]-MIP-1 alpha as radioligand
# [3] = Volume of distribution in rat; format: ADME, organism-based; conditions: in vivo, read-out: Vdss
# [4] = Plasma clearance in rat; format: ADME, organism-based; conditions: read-out: Clp
# [5] = Oral bioavailability in rat; format: ADME, organism-based; conditions: in vivo
# [6] = Half life in rat; format: ADME, organism-based; conditions: in vivo
# HeLa [7] = assay: Anti viral activity in anti HIV-1 infectivity assay in HeLa Magi cells; format: functional; conditions: Homo sapiens
# [8] = molecular target: T1, C-C chemokine receptor type 5; assay: Inhibitory concentration against C-C chemokine receptor type 5 using [125I]-MIP-1 alpha as radioligand
# T1 sequence (P51681 whole entry): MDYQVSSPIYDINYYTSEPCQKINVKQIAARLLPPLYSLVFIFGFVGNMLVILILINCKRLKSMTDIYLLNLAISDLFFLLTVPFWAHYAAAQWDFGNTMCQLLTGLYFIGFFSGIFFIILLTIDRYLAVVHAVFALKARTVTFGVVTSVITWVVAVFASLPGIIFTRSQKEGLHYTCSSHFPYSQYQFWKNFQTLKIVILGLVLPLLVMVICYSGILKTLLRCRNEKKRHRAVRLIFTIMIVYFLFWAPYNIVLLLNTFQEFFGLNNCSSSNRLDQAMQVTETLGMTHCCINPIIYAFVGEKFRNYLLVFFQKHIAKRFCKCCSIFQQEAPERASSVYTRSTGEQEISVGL
Compound,IC50 (HeLa [1]),IC50 [2],other results
O=C(O)C(CC1CC1)N1CC(c2ccccc2)[C@@H](CN2CCC(c3cnc(Cc4ccccc4)s3)CC2)C1 (some centres undefined),0.13 nM,0.23 nM,
CCc1nc(Cc2ccccc2)sc1C1CCN(C[C@H]2CN([C@@H](C(=O)O)C(C)C)C[C@@H]2c2cccc(F)c2)CC1,0.13 nM,1 nM,Vd [3]: 0.54 L/kg; clearance [4]: 1.15 mL/min/kg; bioavailability [5]: 19%; half-life [6]: 50.4 min
O=C(O)[C@@H](C1CCCCC1)N1C[C@H](CN2CCC(c3cnc(-c4ccccc4)[nH]3)CC2)[C@@H](c2ccccc2)C1,,6.2 nM,IC90 (HeLa [7]): 33 nM
O=C(O)[C@@H](CC1CCC1)N1C[C@H](CN2CCC(c3cnc(Cc4ccccc4)o3)CC2)[C@@H](c2ccccc2)C1,3.7 nM,0.34 nM,
O=C(O)[C@@H](CC1CCC1)N1C[C@H](CN2CCC(c3c[nH]c(Cc4ccccc4)n3)CC2)[C@@H](c2ccccc2)C1,100 nM,0.38 nM,
O=C(O)[C@@H](CC1CC1)N1C[C@H](CN2CCC(c3cnc(Cc4ccccc4)o3)CC2)[C@@H](c2ccccc2)C1,3.7 nM,1.6 nM,
CC(C)[C@H](C(=O)O)N1C[C@H](CN2CCC(c3cnc(Cc4ccccc4)s3)CC2)[C@@H](c2ccccc2)C1,11 nM,0.51 nM,
O=C(O)[C@@H](C1CCCCC1)N1C[C@H](CN2CCC(c3csc(Cc4ccccc4)n3)CC2)[C@@H](c2ccccc2)C1,,1.3 nM,IC90 (HeLa [7]): 33 nM
O=C(O)[C@@H](C1CCCCC1)N1C[C@H](CN2CCC(c3ncc(Cc4ccccc4)o3)CC2)[C@@H](c2ccccc2)C1,,1.5 nM,IC90 (HeLa [7]): 100 nM
O=C(O)[C@@H](C1CCCCC1)N1C[C@H](CN2CCC(c3nc(-c4ccccc4)c[nH]3)CC2)[C@@H](c2ccccc2)C1,,23 nM,
CCc1nc(Cc2ccccc2)sc1C1CCN(C[C@H]2CN([C@H](CC3CCC3)C(=O)O)C[C@@H]2c2cccc(F)c2)CC1,0.13 nM,0.76 nM,
CCc1nc(Cc2ccccc2)oc1C1CCN(C[C@H]2CN([C@H](CC3CCC3)C(=O)O)C[C@@H]2c2cccc(F)c2)CC1,0.13 nM,0.89 nM,
O=C(O)[C@@H](C1CCCCC1)N1C[C@H](CN2CCC(c3ncc(Cc4ccccc4)s3)CC2)[C@@H](c2ccccc2)C1,,2 nM,IC90 (HeLa [7]): 33 nM
O=C(O)[C@@H](CC1CC1)N1C[C@H](CN2CCC(c3c[nH]c(Cc4ccccc4)n3)CC2)[C@@H](c2ccccc2)C1,100 nM,0.73 nM,
O=C(O)[C@@H](C1CCCCC1)N1C[C@H](CN2CCC(c3cc(-c4ccccc4)no3)CC2)[C@@H](c2ccccc2)C1,,,IC50 [8]: 18.1 nM
O=C(O)C(CC1CCC1)N1CC(c2ccccc2)[C@@H](CN2CCC(c3cnc(Cc4ccccc4)s3)CC2)C1 (some centres undefined),0.13 nM,0.23 nM,
O=C(O)[C@@H](CC1CC1)N1C[C@H](CN2CCC(c3[nH]c(Cc4ccccc4)nc3Cl)CC2)[C@@H](c2cccc(F)c2)C1,0.4 nM,0.7 nM,Vd [3]: 1.05 L/kg; clearance [4]: 60.5 mL/min/kg; bioavailability [5]: 1.1%; half-life [6]: 31.8 min
O=C(O)[C@@H](C1CCCCC1)N1C[C@H](CN2CCC(c3nocc3-c3ccccc3)CC2)[C@@H](c2ccccc2)C1,,27 nM,
O=C(O)[C@@H](C1CCCCC1)N1C[C@H](CN2CCC(c3cnc(Cc4ccccc4)s3)CC2)[C@@H](c2ccccc2)C1,,0.29 nM,IC90 (HeLa [7]): 0.14 nM
CCc1nc(Cc2ccccc2)[nH]c1C1CCN(C[C@H]2CN([C@H](CC3CCC3)C(=O)O)C[C@@H]2c2cccc(F)c2)CC1,0.4 nM,0.57 nM,
CC(C)[C@H](C(=O)O)N1C[C@H](CN2CCC(c3cnc(Cc4ccccc4)o3)CC2)[C@@H](c2ccccc2)C1,300 nM,3.8 nM,
O=C(O)[C@@H](CC1CCC1)N1C[C@H](CN2CCC(c3[nH]c(Cc4ccccc4)nc3Cl)CC2)[C@@H](c2cccc(F)c2)C1,0.13 nM,0.6 nM,
O=C(O)[C@@H](C1CCCCC1)N1C[C@H](CN2CCC(c3csc(-c4ccccc4)n3)CC2)[C@@H](c2ccccc2)C1,,1.1 nM,IC90 (HeLa [7]): 100 nM
O=C(O)[C@@H](C1CCCCC1)N1C[C@H](CN2CCC(c3cnc(Cc4ccccc4)[nH]3)CC2)[C@@H](c2ccccc2)C1,,0.67 nM,
CC(C)[C@H](C(=O)O)N1C[C@H](CN2CCC(c3cnc(Cc4ccccc4)[nH]3)CC2)[C@@H](c2ccccc2)C1,300 nM,7 nM,
